Experimental data taken from patent US9750714B2, “Pharmaceutical use of 3, 4-bis-benzylsulfonylbutyronitrile” (Olatec Therapeutics LLC, priority 2013, dated 2017).

Tests used:
[1] = system: arachidonic acid-induced ear swelling; assay: topical arachidonic acid-induced ear swelling model in mice; format: in vivo
Experimental: The test compound, indomethacin (positive control), and vehicle were evaluated for anti-inflammatory activity in a topical arachidonic acid-induced ear swelling model in mice. Male ICR mice weighing 22±2 g were used and randomly divided; the test compound and vehicle control had 10 mice, and indomethacin had 5 mice. Arachidonic Acid (0.5 mg in 20 μl of acetone:ethanol/1:1) was applied topically to the anterior and posterior surfaces of the right ear of each mouse. Test substances and vehicle, as listed in Table 2 were similarly applied 30 min before and 15 min after arachidonic acid application. The thickness of the right ear and the left ear was measured and the difference calculated as an indication of the inflammation in the right ear. Ear swelling was measured by a Dyer model micrometer gauge at 60 and 90 minutes after arachidonic acid application as an index of inflammation. Percent inhibition was calculated according to the formula: Ic−It/Ic×100, where Ic and It refers to increase of ear thickness (mm) in control and treated mice, respectively. ANOVA and Dunnett's test were employed to ascertain significant difference between vehicle control and treated groups. Significance is set at P<0.05 level.

[2] = system: tail flick response to heat stimulus; assay: tail flick test in mice (49° C. water bath); format: in vivo
Experimental: The tail flick test is a test of the pain response in animals. The tail flick test is used in basic pain research and to measure the effectiveness of analgesics, by observing the tail flick reaction to heat in an animal. This test assesses the nociceptive response to a local pain stimulus, and the ability of a drug to inhibit this response.
Vehicle control (DMSO) and test compound 3, 4-bis-benzylsulfonylbutanenitrile in DMSO were administered by oral gavage to mice with a volume of 5 mL/kg, immediately prior to testing, at time zero. The test compound was administered at a dosage of 500 mg/kg in DMSO. Positive control morphine in water was administered at time zero by subcutaneous injection at 8 mg/kg to mice. […] The purpose of morphine is […] to serve as a comparison with the test compound. Each group had 10 mice.
The response of mice to heat stimulus was evaluated by measuring the time of tail-flick or tail-flick latency from 49° C. water bath. Briefly, the animal was held with its tail hanging down. Approximately 2 inches of the tail was immersed in a beaker of water at 38±1° C. for about 30 seconds, and this was done twice to acclimate the animal to the procedure.
Subsequently, approximately 2 inches of the tail was immersed in a beaker of water at 49±1° C., at which point a timer was started.
Tail flick measurements were made at 0, 30, 60, and 120 minutes post administration of the dosage of test compound, vehicle, or morphine. An ANOVA was done, and if p<0.05, a Dunnett's t test was employed to calculate significant difference between vehicle control and test compound treated groups. A pairwise Student's t test was used to calculate differences between the morphine group and the control group. […] Analysis with p-values<0.05 is considered significant.

SMILES: N#CCC(CS(=O)(=O)Cc1ccccc1)S(=O)(=O)Cc1ccccc1 (stereo not drawn) [3,4-bis-benzylsulfonylbutanenitrile, 3,4-bis-benzylsulfonylbutanenitrile]
- anti-inflammatory activity in the mouse ear swelling model (in words) ([1]; applied topically, inflammation induced by arachidonic acid): anti-inflammatory
- tail flick latency compared with vehicle-treated mice ([2]; test compound 500 mg/kg in DMSO, oral, 120 minutes post dosing): statistically significant

SMILES: COc1ccc2c(c1)c(CC(=O)O)c(C)n2C(=O)c1ccc(Cl)cc1 [Indomethacin, reference compound]
- % Inhibition of ear swelling ([1]; topical, applied 30 min before and 15 min after arachidonic acid, measured at 90 minutes, relative to vehicle, indomethacin 14 mM (0.1 mg/20 μL), test compound 375 mM (2.8 mg/20 μL)): 58%

SMILES: CN1CC[C@]23c4c5ccc(O)c4O[C@H]2[C@@H](O)C=C[C@H]3[C@H]1C5 [morphine]
- tail flick latency compared with vehicle-treated mice ([2]; morphine 8 mg/kg subcutaneous, 30 minutes post dosing): statistically significant
- tail flick latency compared with vehicle-treated mice ([2]; morphine 8 mg/kg subcutaneous, 60 minutes post dosing): statistically significant
- tail flick latency compared with vehicle-treated mice ([2]; morphine 8 mg/kg subcutaneous, 120 minutes post dosing): not
